# Experimental data reported in patent publication US7374890B2, “Methods for identifying compounds that modulate ΔTRα2 activity” (University of Massachusetts, priority 2000, dated 2008).
# Test system: cerebellar granule neurons
# Assay: FM1-43 synaptic vesicle recycling in cultured cerebellar granule neurons, spontaneous activity
# Format: cell-based, rat
# Protocol: All of the major components of hormone-induced vesicle trafficking in astrocytes (actin fibers, myosin V (also referred to as myosin 5a and myo 5a), and recycling vesicles) are also present in nerve terminals. Therefore, the effects of thyroid hormone on synaptic vesicle recycling in the presynaptic nerve terminal were examined using myo5a-dependent synaptic vesicle (SV) recycling in cultured cerebellar granule neurons. In these experiments, rat granule neurons were grown on laminin-coated coverslips in the absence or presence of hormone and synaptic vesicle recycling was examined using FM1-43 (a styryl dye used in the art for studying endocytosis and exocytosis, e.g., in synaptic vesicle uptake and release assays; Molecular Probes, Inc. Eugene, Oreg.). […] In contrast, granule neurons grown in thyroid hormone supplemented medium released only 15-20% of the FM1-43 after six minutes of incubation and the hormone specificity of retention of FM1-43 in the “reserve pool” was identical to that determined for myo5a-dependent, endocytosis of p29 vesicles (D2p29 vesicles) in astrocytes.
# Cerebellar granule neurons were examined because thyroid hormone has a profound influence on granule neuron viability during cerebellar maturation (Xiao and Nikodem, 1998, Front. Biosci. 3: A52-57; Rabie et al., 1980, Brain Res. 190:409-414), and because of the effects of the loss of myo5a on synaptic vesicle homeostasis (Bridgman, 1999, J. Cell Biol. 146:1045-1060). […]
# Experiments were conducted to determine whether synaptic vesicle endocytosis could be altered by the hormone status of the neuron. […] The dye was then removed and the number, intensity and retention of the FM1-43 in random nerve terminals immediately after washing and after six minutes of autonomous activity were analyzed in paraformaldehyde fixed cells (Ryan, 1999, J. Neurosci.: 19:1317-1323). Fluorescence in single nerve terminals (ROI=7×7 pixels) and in an adjacent segment of the neuronal fiber were measured for 40-45 individual nerve terminals. […] Fluorescence intensity was determined using NIH Image software. The total FM1-43 fluorescence in a nerve terminal represents the sum of the dye-loaded synaptic vesicles in the readily releasable and the reserve pools.
# By allowing recurrent activity, the FM1-43 filled synaptic vesicles present in the readily releasable pool will be progressively depleted. […] By measuring the total FM1-43 content in random nerve terminals immediately after loading and at 30 second intervals for six minutes of spontaneous activity, the influence of hormones on the distribution of recycling synaptic vesicles between the readily releasable and reserve pools was estimated.
smiles,measurement,setting,value
"N[C@@H](Cc1cc(I)c(Oc2cc(I)c(O)c(I)c2)c(I)c1)C(=O)O [T4, thyroxine]",endocytosed FM1-43 retained,"acute treatment, after three minutes of spontaneous stimulation",> 90%
same,uptake of FM1-43,immediately after loading,No differences
